The values that follow come from US5516790A, “Synthesis and application of alkyl-substituted dibenzofurans as antitumorigenic agents” (Texas A&M University System Technology Licensing Office, priority 1994, dated 1996).

In one data set the test system is 34-kDa protein. To be noted: Biegel and Safe, 1990; cited from earlier work.
Another data set relates to uterus. The conditions noted are these: cited from earlier work.
A further data set has as its system female rat uterus. Description: Antiestrogenic effect on uterine wet weight, immature female Sprague-Dawley rats (Example 8). The data set is classed as in vivo. The conditions noted are these: run A.
A short description of another data set: Toxicity. To be noted: in vivo.
The test system of a further data set is estrogen receptor. To be noted: cited from earlier work.

For the compound `Cc1cc(Cl)cc2c1oc1cc(Cl)cc(Cl)c12` [MCDF, 6-methyl 1,3,8-trichlorodibenzofuran], in the data set on 34-kDa protein, the “17β-estradiol-induced secretion of the 34-kDa protein” value is recorded as “inhibits”. In the data set on uterus, the “17β-estradiol-induced increases in rat uterine wet weight” value was “active as an antiestrogen”. Moreover, in the data set on uterus (rat, in vivo), the “uterotrophic effects of 17β-estradiol” value was “inhibits”. The “Uterine Wet Weight” value with female rat uterus (150 μmol/kg + E-2 (2 × 10 μg/rat)) amounted to 0.194 ± 0.023 % body wt. Further, the “Uterine Wet Weight” value in the data set on female rat uterus (compound alone, 150 μmol/kg (17β-estradiol: 2 × 10 μg/rat)) worked out at 0.104 ± 0.004 % body wt. Further, in “Toxicity”, the toxicity result is “low toxicity” and the “toxicity of amounts giving antiestrogenic effects” value is on record as “nontoxic”.
For `Clc1cc2c(cc1Cl)Oc1cc(Cl)c(Cl)cc1O2` [TCDD, 2,3,7,8-tetrachloridibenzo-p-dioxin], the “binding to the estrogen receptor” value in the data set with estrogen receptor was “does not bind”.
